The values below come from ChEMBL document CHEMBL3137667, “[Drug-induced liver injury; fourteenth updated edition of the bibliographic database of liver injuries and related drugs]” (Gastroenterol Clin Biol, 2004).

A short description of data set [1]: Presence of at least one case with successful reintroduction. [column 'REINT' in source]. The following applies: human.
The conditions of data set [2]: human, serum.
For data set [3] the following is noted: human.
For data set [4] the following is noted: human. This is another data set of the same source.
For data set [5] the following is noted: human. The source holds these as a separate data set.
For data set [6] the following is noted: human, serum, 4383 h.
For data set [7] the following is noted: human. This is another data set of the same source.
A short description of data set [8]: Comments (NB not yet translated). [column 'COMMENTAIRES' in source]. The following applies: human.
Data set [9] is described as follows: Times to onset, minimal and maximal, observed in the indexed observations. [column 'DELAI' in source]. The following applies: human.
For data set [10] the following is noted: human. The source holds these as a separate data set.
For data set [11] the following is noted: human. The source holds these as a separate data set.
The nature of data set [12]: Highest frequency of moderate liver toxicity observed during clinical trials, expressed as a percentage. [column '% BIOL' in source]. The following applies: human.
For data set [13] the following is noted: human. The source holds these as a separate data set.
The nature of data set [14]: Highest frequency of acute liver toxicity observed during clinical trials, expressed as a percentage. [column '% AIGUE' in source]. The following applies: human.
The conditions of data set [15]: human. The source holds these as a separate data set.
The conditions of data set [16]: human, serum. This is another data set of the same source.
For data set [17] the following is noted: human. This is another data set of the same source.
Data set [18] in a line: Proposed mechanism(s) of liver damage. [column 'MEC' in source]. The following applies: human.
The conditions of data set [19]: human. This is another data set of the same source.
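Throughout, for Hepatotoxicity (association with vascular disease): count of indexed literature references reporting vascular liver injury in humans, e.g. peliosis hepatitis, hepatic veno-occlusive disease or Budd-Chiari syndrome.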
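Throughout, for Hepatotoxicity (benign tumour): value is a count of indexed literature references citing a benign tumour confirmed by histopathology.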
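Throughout, for Hepatotoxicity (choleostasis): human cholestatic liver injury, shown by histopathology or by peak ALT or AST elevation over alkaline phosphatase ratio below 2, value counts indexed literature reports.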
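Throughout, for Hepatotoxicity (chronic liver disease): chronic liver injury confirmed by histopathology or persistently raised serum aminotransferase activity beyond 6 months, value given as the count of indexed literature references.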
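Throughout, for Hepatotoxicity (cirrhosis): value is a count of indexed literature references reporting cirrhosis confirmed by histopathology.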
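Throughout, for Hepatotoxicity (cytolytic): human cytolytic liver injury, shown by histopathology or by a ratio above 5 of peak ALT or AST elevation to alkaline phosphatase elevation, value counts indexed references.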
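Throughout, for Hepatotoxicity (granulomatous hepatitis): value is a count of indexed literature references reporting granulomatous liver disease confirmed by histopathology.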
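Throughout, for Hepatotoxicity (malignant tumour): malignant tumour confirmed by histopathology, value gives the count of indexed literature references reporting it.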
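Throughout, for Hepatotoxicity (severe hepatitis): human clinical data: severe hepatitis, meaning potentially life-threatening liver failure or clinically observed cases, the value counts how many indexed literature references report it.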
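Throughout, for Hepatotoxicity (steatosis): steatosis confirmed by histopathology, value is the count of indexed references.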

As to ALDESLEUKIN, in data set [1], the “Hepatotoxicity (successful reintroduction)” value is reported as “yes”. Moreover, the “Hepatotoxicity (moderate)” value in data set [2] was determined as 58; in data set [12] it was 100%. Moreover, the “Hepatotoxicity (malignant tumour)” value in data set [3] stood at 0. For the same compound, in [4], the “Hepatotoxicity (steatosis)” value is 1. In data set [5], the “Hepatotoxicity (severe hepatitis)” value stood at 1. Also, the “Hepatotoxicity (chronic liver disease)” value in data set [6] was determined as 0. Besides, in data set [7], the “Hepatotoxicity (choleostasis)” value is 6. The “Hepatotoxicity (comment)” value in data set [8] was “CHOLECYSTITE PERICHOLANGITE”. Also, in data set [9], the “Hepatotoxicity (time to onset)” value is listed as 1 day - 2 years. The “Hepatotoxicity (association with vascular disease)” value in data set [10] is given as 0. Besides, the “Hepatotoxicity (cytolytic)” value in [11] is 6. Further, the “Hepatotoxicity (benign tumour)” value in data set [13] is on record as 0. For the same compound, the “Hepatotoxicity (acute)” value came to 35.7% in data set [14] and 14 in data set [16]. In addition, the “Hepatotoxicity (granulomatous hepatitis)” value in data set [15] was 0. The “Hepatotoxicity (cirrhosis)” value in data set [17] is listed as 1. In addition, the “Hepatotoxicity (mechanism)” value in data set [18] was “Allergic, Dose-dependant”. Also, the “Hepatotoxicity (animal toxicity known)” value in [19] was “yes”.

Turning to `O=c1[nH]c(=O)n([C@H]2C[C@H](O)[C@@H](CO)O2)cc1F` [FLOXURIDINE], the “Hepatotoxicity (successful reintroduction)” value in data set [1] is given as “yes”. The “Hepatotoxicity (moderate)” value came to 25 in [2] and 100% in data set [12]. In addition, the “Hepatotoxicity (malignant tumour)” value in data set [3] is 0. Moreover, the “Hepatotoxicity (steatosis)” value in [4] was determined as 2. The “Hepatotoxicity (severe hepatitis)” value in [5] was 3. Besides, the “Hepatotoxicity (chronic liver disease)” value in [6] was determined as 0. Also, the “Hepatotoxicity (choleostasis)” value in data set [7] worked out at 7. In data set [8], the “Hepatotoxicity (comment)” value was “CHOLECYSTITE_ACALCULEUSE CHOLANGITE/IAH #CBP”. For the same compound, the “Hepatotoxicity (time to onset)” value in data set [9] is reported as 3 cures - 12 cures. Besides, the “Hepatotoxicity (association with vascular disease)” value in data set [10] was found to be 3. Besides, the “Hepatotoxicity (cytolytic)” value in data set [11] worked out at 2. Further, the “Hepatotoxicity (benign tumour)” value in [13] came out at 0. Moreover, the “Hepatotoxicity (acute)” value in data set [14] was determined as 60%; in data set [16] it was 9. For the same compound, in data set [15], the “Hepatotoxicity (granulomatous hepatitis)” value amounted to 0. For the same compound, the “Hepatotoxicity (cirrhosis)” value in data set [17] was 4. The “Hepatotoxicity (mechanism)” value in data set [18] is reported as “Dose-dependant”. In addition, the “Hepatotoxicity (animal toxicity known)” value in data set [19] was “yes”.

Regarding `CC[C@H]1OC(=O)[C@H](C)[C@@H](O[C@H]2C[C@@](C)(OC)[C@@H](O)[C@H](C)O2)[C@H](C)[C@@H](O[C@@H]2O[C@H](C)C[C@H](N(C)C)[C@H]2O)[C@](C)(OC)C[C@@H](C)C(=O)[C@H](C)[C@@H](O)[C@]1(C)O` [CLARITHROMYCIN], the “Hepatotoxicity (successful reintroduction)” value in data set [1] was “yes”. Also, the “Hepatotoxicity (moderate)” value in data set [2] is reported as 47; in data set [12], 50.6%. Also, in data set [3], the “Hepatotoxicity (malignant tumour)” value was 0. The “Hepatotoxicity (steatosis)” value in data set [4] came out at 0. For the same compound, the “Hepatotoxicity (severe hepatitis)” value in data set [5] amounted to 4. Also, in data set [6], the “Hepatotoxicity (chronic liver disease)” value was 0. In addition, the “Hepatotoxicity (choleostasis)” value in data set [7] came to 6. Also, the “Hepatotoxicity (comment)” value in data set [8] was “AC_ANTI-N”. Moreover, the “Hepatotoxicity (time to onset)” value in data set [9] is 1 day - 10 weeks. The “Hepatotoxicity (association with vascular disease)” value in [10] came out at 0. Also, in data set [11], the “Hepatotoxicity (cytolytic)” value was determined as 9. The “Hepatotoxicity (benign tumour)” value in data set [13] came to 0. For the same compound, the results for the “Hepatotoxicity (acute)” value in data set [14] and in [16] were 5.6% and 13, respectively. Moreover, the “Hepatotoxicity (granulomatous hepatitis)” value in data set [15] was found to be 0. For the same compound, the “Hepatotoxicity (cirrhosis)” value in data set [17] is recorded as 0. In [18], the “Hepatotoxicity (mechanism)” value is recorded as “Allergic, Dose-dependant”. Besides, the “Hepatotoxicity (animal toxicity known)” value in data set [19] is “yes”.

For `CCCCc1oc2ccccc2c1C(=O)c1cc(I)c(OCCN(CC)CC)c(I)c1` [AMIODARONE], the “Hepatotoxicity (successful reintroduction)” value in [1] is listed as “yes”. The “Hepatotoxicity (moderate)” value worked out at 55 in data set [2] and 55% in data set [12] (Liver). Also, the “Hepatotoxicity (malignant tumour)” value in data set [3] is 0. In addition, the “Hepatotoxicity (steatosis)” value in data set [4] stood at 4. Also, the “Hepatotoxicity (severe hepatitis)” value in [5] (Liver) was found to be 14. For the same compound, in data set [6], the “Hepatotoxicity (chronic liver disease)” value amounted to 8. Also, in [7] (Liver), the “Hepatotoxicity (choleostasis)” value is on record as 6. Besides, in data set [8], the “Hepatotoxicity (comment)” value was “RC/AJMALINE #S.REYE”. Further, the “Hepatotoxicity (time to onset)” value in data set [9] is listed as 1 day - 10 years. In addition, in [10], the “Hepatotoxicity (association with vascular disease)” value turned out to be 0. The “Hepatotoxicity (cytolytic)” value in [11] (Liver) is reported as 20. Further, the “Hepatotoxicity (benign tumour)” value in [13] is on record as 0. In addition, the “Hepatotoxicity (acute)” value is 6% in data set [14] (Liver) and 34 in data set [16]. Moreover, in data set [15] (Liver), the “Hepatotoxicity (granulomatous hepatitis)” value is reported as 2. Moreover, the “Hepatotoxicity (cirrhosis)” value in [17] is on record as 17. Moreover, in data set [18], the “Hepatotoxicity (mechanism)” value is reported as “Allergic, Dose-dependant”. In addition, the “Hepatotoxicity (animal toxicity known)” value in data set [19] is “yes”.
